The values below come from patent publication US10815275B2, “Antimicrobial peptoids with improved selectivity and use thereof” (priority 2018, dated 2020).

One series can be described thus: in vitro. The format is cell-based. Particulars: concentration indicating 50% survival, 24 h, MTS; read-out: LC50. A digest of the protocol: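 Human lung […] cells, 1.3×10^4 per well in DMEM with 10% FBS, incubated overnight, then treated 24 h with 2-fold serially diluted peptoid at 37° C, 5% CO2. MTS added for 4 hours, absorbance 490 nm; % survival relative to untreated control cells.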

The subject of a further series is E. coli. The series is described as follows: Selectivity analysis, HD10 divided by MIC for E. coli. Particulars: HD10 of Table 6 divided by MIC for E. coli ATCC25922. The method, then: In order to identify changes in selectivity depending on alteration of degree of folding in helical structure of peptoids, selectivity of each peptoid was calculated using the resultant values measured in the Experimental Examples 1 and 2. The selectivity was obtained by dividing the HD10 value by the minimum inhibitory concentration for E. coli (Table 8).

The nature of series [1]: Metabolic stability in human liver S9 fraction, HPLC. To be noted: 37° C., after 24 hours. The format is in vitro ADME. The method, then:
In order to identify metabolic stability of the peptoids synthesized in Preparation Example 1, such peptoids were subjected to enzymatic reaction using S9 fraction which is a mixture of human liver tissue-extracted metabolic enzymes. Thereafter, for the reaction products, metabolites were quantitated using HPLC.
Specifically, Peptoid NOS. 1 and 4, and Pexiganan as a peptide control (40 μL each, 100 μM) were treated with […], 3.3 mM MgCl2, and 1.3 mM NADPH buffer (306 μL, pH=7.4), to prepare respective samples. The respective samples were treated with S9 fraction (2 μL, 0.1 mg/mL) and then incubated at a temperature of 37° C. When 0, 1, 4, and 24 hours had elapsed after treatment with the S9 fraction, 40 μL of each sample was taken out, and acetonitrile containing the same amount of 0.1% trifluoroacetic acid was used to stop activity of enzymes contained in the S9 fraction. Thereafter, proteins precipitated with acetonitrile were centrifuged at a condition of 1,000×g for 10 minutes at a temperature of 4° C. Then, supernatant was analyzed by HPLC to identify an amount of the remaining peptoid which had not been degraded by the enzymes in the S9 fraction.

The subject of a further series is B. subtilis. Format: cell-based. To be noted: LB medium, 18 h. Summed up: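 B. subtilis or E. coli DH5α grown 18 h at 37 °C in LB, diluted to 2×10^5 CFU/mL and exposed to 2-fold serial peptoid dilutions for 18 h at 37 °C. Growth read by A600; MIC taken as lowest concentration fully suppressing growth, averaged over three independent experiments.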
Another series relates to E. coli strain ATCC25922. Format: cell-based. To be noted: strain ATCC25922. A digest of the protocol:
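Broth microdilution in cation-adjusted Mueller Hinton Broth used 2×10^5 CFU/mL in medium with 0.2% BSA and 0.01% acetic acid. Peptoids were 2-fold serially diluted, and plates were incubated 18 hours at 37° C. with absorbance read at 600 nm. MIC was the lowest concentration completely suppressing growth, averaged over three independent experiments; MBC was also determined.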

Series [2] relates to S. aureus strain KCTC1621. The format is cell-based. To be noted: strain KCTC1621. Summed up:
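Broth microdilution used 2×10^5 CFU/mL in cation-adjusted Mueller Hinton broth containing 0.2% BSA and 0.01% acetic acid, with 2-fold serial peptoid dilutions and 18 h at 37 °C. Growth was read at A600. MIC was the lowest concentration fully suppressing growth, averaged over three independent experiments.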

Converted amounts (≈) assume the structure as drawn. Non-standard residues stand in square brackets, D forms with d. Residues, ends and D or L forms follow the SMILES beside them. Nspe = C[C@H](NCC(=O)O)c1ccccc1; Nlys = NCCCCNCC(=O)O Some results are limits rather than exact numbers.

As a reminder, the fraction remaining is the share of the starting amount still present when the sample was taken. As to `C[C@@H](c1ccccc1)N(CC(N)=O)C(=O)CN(C(=O)CN(CCCCN)C(=O)CN(C(=O)CN(C(=O)CN(CCCCN)C(=O)CN(C(=O)CN(C(=O)CN(CCCCN)C(=O)CN(C(=O)CN(C(=O)CNCCCCN)[C@@H](C)c1ccccc1)[C@@H](C)c1ccccc1)[C@@H](C)c1ccccc1)[C@@H](C)c1ccccc1)[C@@H](C)c1ccccc1)[C@@H](C)c1ccccc1)[C@@H](C)c1ccccc1` [compound 1] (H-[Nlys][Nspe][Nspe][Nlys][Nspe][Nspe][Nlys][Nspe][Nspe][Nlys][Nspe][Nspe]-NH2), in the series “in vitro”, the CC50 at 24 h worked out at 8 µM. In addition, the “Selectivity [HD10/MIC (E. coli)]” value in the series with E. coli is recorded as 0.4. The “remaining amount after S9 fraction treatment” value in series [1] (human liver S9 fraction, 1440 min) is given as “about 64%”. Further, in series [1] (human, s9, pH 7.4, human liver S9 fraction, read-out: remaining amount after S9 fraction treatment), the fraction remaining at 24 h, 11.5 μM was at least 60%. In addition, the “MIC B. subtilis” value in the series with B. subtilis is 0.8 µM (≈ 1.46 µg/mL). For the same compound, the “MBC E. coli” value against E. coli strain ATCC25922 came out at 3.1 µM (≈ 5.64 µg/mL). For the same compound, the “MBC S. aureus” value in series [2] came to 1.6 µM (≈ 2.91 µg/mL).
